The subject of one series is NF-κB. The experiment in a line: NF-κB luciferase reporter assay in A549/NF-κBLuc cells stimulated with IL-1β. It is filed as cell-based, human. Conditions: Homo sapiens, A549, A549/NF-κBLuc cells; compound added 1 hour before IL-1β, then 3 hours incubation; luciferase activity; read-out: NF-κB Inhibitory Activity (IC50). The method, boiled down:
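A549 cells stably carrying an NF-κB-driven luciferase reporter (pNFκB-Luc, G418-selected) pre-treated with compound for 1 h, then stimulated with IL-1β and incubated a further 3 h. Luciferase signal used to derive IC50 for NF-κB inhibition.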
(In general: Reporter assays use an easily measured gene product as a stand-in for the process of interest.)

Our source for the IC50 and melting point values is US7064124B2, “NF-κB inhibitor containing substituted benzoic acid derivative as active ingredient” (Daiichi Suntory Pharma Co., Ltd., priority 2001, dated 2006).

≈ marks a conversion by molar mass, not a printed value.

Compound `CC1=C(C)C(=O)C(Cc2ccc(O)c(C(=O)Nc3ccc(C(F)(F)F)cc3)c2)=C(C)C1=O` [Example 235, N-[5-(3,5,6-Trimethyl-1,4-benzoquinon-2-yl)methyl-2-hydroxybenzoyl]-4-trifluoromethylaniline] yielded a melting point of 233 to 235 °C. Also, the half-maximal inhibitory concentration (IC50) in the series with NF-κB was found to be 5 µg/mL (≈ 11.3 µM).
For `COC1=C(OC)C(=O)C(Cc2ccc(OC(C)=O)c(C(=O)Nc3ccc(NC(=O)OC(C)(C)C)cc3)c2)=C(C)C1=O` [Example 199, N-[5-(5,6-Dimethoxy-3-methyl-1,4-benzoquinon-2-yl)methyl-2-acetoxybenzoyl]-4-(tert-butoxycarbonyl)aminoaniline], in that order: 188.5 to 191 °C and 16 µg/mL (≈ 28.3 µM).
Consider `COC1=C(OC)C(=O)C(Cc2cccc(C(=O)Nc3cccnc3)c2O)=C(C)C1=O` [Example 207, N-(Pyridin-3-yl)-3-(5,6-dimethoxy-3-methyl-1,4-benzoquinon-2-yl)methyl-2-hydroxybenzamide], for which the melting point lay in the range of 169 to 171 °C. Also, the IC50 with NF-κB was found to be 98 µg/mL (≈ 240 µM).
In turn, `COC1=C(OC)C(=O)C(Cc2ccc(O)c(C(=O)Nc3cccnc3Cl)c2)=C(C)C1=O` [Example 187, N-(2-Chloropyridin-3-yl)-5-(5,6-dimethoxy-3-methyl-1,4-benzoquinon-2-yl)methyl-2-hydroxybenzamide] returned a melting point of 152 to 154 °C. The IC50 with NF-κB turned out to be 2 µg/mL (≈ 4.52 µM).
For `COC1=C(OC)C(=O)C(Cc2ccc(OC(C)=O)c(C(=O)Nc3ccc(C(=O)OC(C)(C)C)cc3)c2)=C(C)C1=O` [Example 188, tert-Butyl N-[5-(5,6-dimethoxy-3-methyl-1,4-benzoquinon-2-yl)methyl-2-acetoxybenzoyl]-4-aminobenzoate], in that order: 78.5 to 81 °C and 9 µg/mL (≈ 16.4 µM).
For `COC1=C(OC)C(=O)C(Cc2ccc(OCc3cccnc3)c(C(=O)NC3CCCCC3)c2)=C(C)C1=O` [Example 171, N-Cyclohexyl-5-(5,6-dimethoxy-3-methyl-1,4-benzoquinon-2-yl)methyl-2-(3-pyridylmethyloxy)benzamide], in that order: 115 to 118 °C and 26 µg/mL (≈ 51.5 µM).
`COC1=C(OC)C(=O)C(Cc2ccc(OC)c(C(=O)Nc3cccnc3Cl)c2)=C(C)C1=O` [Example 221, N-(2-Chloropyridin-3-yl)-5-(5,6-dimethoxy-3-methyl-1,4-benzoquinon-2-yl)methyl-2-methoxybenzamide]: the melting point lay in the range of 178 to 180 °C. The IC50 with NF-κB came to 46 µg/mL (≈ 101 µM).
Compound `COC1=C(OC)C(=O)C(Cc2ccc(OC(C)=O)c(C(=O)Nc3ccc(S(=O)(=O)C(F)(F)F)cc3)c2)=C(C)C1=O` [Example 173, N-[5-(5,6-Dimethoxy-3-methyl-1,4-benzoquinon-2-yl)methyl-2-acetoxybenzoyl]-4-(trifluoromethylsulfonyl)aniline] registered a melting point of 84.5 to 87 °C. Besides, the IC50 with NF-κB amounted to 9 µg/mL (≈ 15.5 µM).
For `COC1=C(OC)C(=O)C(Cc2ccc(O)c(C(=O)Nc3cc(OC)ccc3OC)c2)=C(C)C1=O` [Example 220, N-[5-(5,6-Dimethoxy-3-methyl-1,4-benzoquinon-2-yl)methyl-2-hydroxybenzoyl]-2,5-dimethoxyaniline], in that order: 130 to 132 °C and 66 µg/mL (≈ 141 µM).
Regarding `COC1=C(OC)C(=O)C(Cc2ccc(O)c(C(=O)Nc3cccnc3)c2)=C(C)C1=O` [Example 158, N-(Pyridin-3-yl)-5-(5,6-dimethoxy-3-methyl-1,4-benzoquinon-2-yl)methyl-2-hydroxybenzamide], the melting point lay in the range of 119 to 122.5 °C. For the same compound, the IC50 in the series on NF-κB was 7 µg/mL (≈ 17.1 µM).
With `COC1=C(OC)C(=O)C(Cc2ccc(OC(C)=O)c(C(=O)Nc3cc(OC)ncn3)c2)=C(C)C1=O` [Example 228, N-(6-Methoxypyrimidin-4-yl)-5-(5,6-dimethoxy-3-methyl-1,4-benzoquinon-2-yl)methyl-2-acetoxybenzamide], the melting point lay in the range of 138.5 to 141 °C. In addition, the IC50 in the series on NF-κB came out at 64 µg/mL (≈ 133 µM).
Compound `COC1=C(OC)C(=O)C(Cc2ccc(O)c(C(=O)Nc3cccnc3OC)c2)=C(C)C1=O` [Example 216, N-(2-Methoxypyridin-3-yl)-5-(5,6-dimethoxy-3-methyl-1,4-benzoquinon-2-yl)methyl-2-hydroxybenzamide] yielded a melting point of 112 to 114 °C. The IC50 with NF-κB worked out at 10 µg/mL (≈ 22.8 µM).
Consider `COC1=C(OC)C(=O)C(Cc2ccc(O)c(C(=O)Nc3ccc(N4CCOCC4)nc3)c2)=C(C)C1=O` [Example 225, N-(6-Morpholinopyridin-3-yl)-5-(5,6-dimethoxy-3-methyl-1,4-benzoquinon-2-yl)methyl-2-hydroxybenzamide], for which the melting point was 102.5 to 105 °C. Also, the IC50 in the series on NF-κB worked out at 24 µg/mL (≈ 48.6 µM).
The like results for `CCOC(=O)c1ccc(NC(=O)c2cc(CC3=C(C)C(=O)C(OC)=C(OC)C3=O)ccc2OC(C)=O)cc1` [Example 147, Ethyl N-[5-(5,6-dimethoxy-3-methyl-1,4-benzoquinon-2-yl)methyl-2-acetoxybenzoyl]-4-aminobenzoate] were, in that order, 154 to 156.5 °C and 19 µg/mL (≈ 36.4 µM).
As to `COC1=C(OC)C(=O)C(Cc2ccc(OC(C)=O)c(C(=O)Nc3cccnc3Cl)c2)=C(C)C1=O` [Example 186, N-(2-Chloropyridin-3-yl)-5-(5,6-dimethoxy-3-methyl-1,4-benzoquinon-2-yl)methyl-2-acetoxybenzamide], the melting point lay within 128.5 to 130 °C. For the same compound, the concentration for half-maximal inhibition (IC50) in the series with NF-κB was 2 µg/mL (≈ 4.12 µM).
The like results for `COC1=C(OC)C(=O)C(Cc2ccc(O)c(C(=O)Nc3ccnc(Cl)c3)c2)=C(C)C1=O` [Example 227, N-(2-Chloropyridin-4-yl)-5-(5,6-dimethoxy-3-methyl-1,4-benzoquinon-2-yl)methyl-2-hydroxybenzamide] were, in that order, 142 to 144 °C and 20 µg/mL (≈ 45.2 µM).
With `COC1=C(OC)C(=O)C(Cc2ccc(O)c(C(=O)Nc3ccc([N+](=O)[O-])cc3)c2)=C(C)C1=O` [Example 191, N-[5-(5,6-Dimethoxy-3-methyl-1,4-benzoquinon-2-yl)methyl-2-hydroxybenzoyl]-4-nitroaniline], the melting point is 213.5 to 215.5 °C. Moreover, in the series on NF-κB, the IC50 came out at 4 µg/mL (≈ 8.84 µM).
For `COC1=C(OC)C(=O)C(Cc2ccc(O)c(C(=O)Nc3ccc(F)cc3)c2)=C(C)C1=O` [Example 142, N-[5-(5,6-Dimethoxy-3-methyl-1,4-benzoquinon-2-yl)methyl-2-hydroxybenzoyl]-4-fluoroaniline], in that order: 125 to 127 °C and 9 µg/mL (≈ 21.2 µM).
For `COC1=C(OC)C(=O)C(Cc2ccc(OC(C)=O)c(C(=O)Nc3ccc(CC#N)cc3)c2)=C(C)C1=O` [Example 149, N-[5-(5,6-Dimethoxy-3-methyl-1,4-benzoquinon-2-yl)methyl-2-acetoxybenzoyl]-4-cyanomethylaniline], in that order: 125 to 128 °C and 25 µg/mL (≈ 51.2 µM).
The like results for `COC1=C(OC)C(=O)C(Cc2ccc(O)c(C(=O)Nc3ccc(OC)nc3)c2)=C(C)C1=O` [Example 181, N-(6-Methoxypyridin-3-yl)-5-(5,6-dimethoxy-3-methyl-1,4-benzoquinon-2-yl)methyl-2-hydroxybenzamide] were, in that order, 169 to 170 °C and 11 µg/mL (≈ 25.1 µM).
Compound `COC1=C(OC)C(=O)C(Cc2ccc(O)c(C(=O)Nc3cccnc3)c2)=C(C)C1=O.CS(=O)(=O)O` [Example 202, N-(Pyridin-3-yl)-5-(5,6-dimethoxy-3-methyl-1,4-benzoquinon-2-yl)methyl-2-hydroxybenzamide (methanesulfonate)] registered a melting point of 149.5 to 152 °C. The IC50 in the series with NF-κB was found to be 20 µg/mL.
For `COC1=C(OC)C(=O)C(Cc2ccc(O)c(C(=O)Nc3ccc(N)cc3)c2)=C(C)C1=O.Cl` [Example 205, N-[5-(5,6-Dimethoxy-3-methyl-1,4-benzoquinon-2-yl)methyl-2-hydroxybenzoyl]-p-phenylenediamine (hydrochloride)], the melting point fell in the range of 162 to 164 °C. For the same compound, the concentration for half-maximal inhibition (IC50) in the series with NF-κB was found to be 50 µg/mL.
For `COC1=C(OC)C(=O)C(Cc2ccc(O)c(C(=O)Nc3ccc(S(=O)(=O)C(F)(F)F)cc3)c2)=C(C)C1=O` [Example 174, N-[5-(5,6-Dimethoxy-3-methyl-1,4-benzoquinon-2-yl)methyl-2-hydroxybenzoyl]-4-(trifluoromethylsulfonyl)aniline], in that order: 223 to 225.5 °C and 6 µg/mL (≈ 11.1 µM).
In the case of `COC1=C(OC)C(=O)C(Cc2ccc(O)c(C(=O)Nc3ccc(C(=O)OC(C)(C)C)cc3)c2)=C(C)C1=O` [Example 214, tert-Butyl N-[5-(5,6-dimethoxy-3-methyl-1,4-benzoquinon-2-yl)methyl-2-hydroxybenzoyl]-4-aminobenzoate], the melting point lay within 200.5 to 202 °C. Moreover, the IC50 in the series with NF-κB came to 10 µg/mL (≈ 19.7 µM).
For `COC1=C(OC)C(=O)C(Cc2ccc(O)c(C(=O)Nc3ccc(CC#N)cc3)c2)=C(C)C1=O` [Example 150, N-[5-(5,6-Dimethoxy-3-methyl-1,4-benzoquinon-2-yl)methyl-2-hydroxybenzoyl]-4-cyanomethylaniline], in that order: 164.5 to 166 °C and 4 µg/mL (≈ 8.96 µM).
`COC1=C(OC)C(=O)C(Cc2ccc(O)c(C(=O)Nc3ccc(NC(=O)OC(C)(C)C)cc3)c2)=C(C)C1=O` [Example 200, N-[5-(5,6-Dimethoxy-3-methyl-1,4-benzoquinon-2-yl)methyl-2-hydroxybenzoyl]-4-(tert-butoxycarbonyl)aminoaniline] had a melting point of 127 to 129 °C. For the same compound, the concentration for half-maximal inhibition (IC50) in the series on NF-κB was determined as 17 µg/mL (≈ 32.5 µM).
For `COC1=C(OC)C(=O)C(Cc2ccc(OC(C)=O)c(C(=O)Nc3ccc(Cl)nc3)c2)=C(C)C1=O` [Example 184, N-(6-Chloropyridin-3-yl)-5-(5,6-dimethoxy-3-methyl-1,4-benzoquinon-2-yl)methyl-2-acetoxybenzamide], in that order: 74.5 to 77.5 °C and 56 µg/mL (≈ 115 µM).
`CCOC(=O)c1ccc(NC(=O)c2cc(CC3=C(C)C(=O)C(OC)=C(OC)C3=O)ccc2O)cc1` [Example 148] showed a melting point of 176 to 179 °C. In the series on NF-κB, the IC50 amounted to 3 µg/mL (≈ 6.26 µM).

By IC50 is commonly meant the point on the concentration scale where inhibition reaches its midpoint. What is called melting point is the temperature, or range, at which the solid turns liquid.
